Drawing on US9988400B2 (Genentech, Inc., priority 2013, dated 2018), this text covers EC50 and Max % for 13 compounds.

The test deals with T1, HEK cells stably transfected with tetracycline inducible hNR1 and hNR2A (Homo sapiens, UniProt Q05586+Q12879).
T1 construct: expressed in transfected cells; host or cells: HEK cells, stably transfected, tetracycline/doxycycline inducible
Briefly: Assay 1: Cell-Based Assay, cytosolic calcium response to positive allosteric modulators (with 30 μM glycine and 300 nM L-glutamate, EC30). The conditions noted are these: for EC50: cytosolic calcium response, with 30 μM glycine and 300 nM L-glutamate (EC30), — = no plateau was reached; for Max %: responses scaled relative to 100 μM L-glutamate maximal response (100%) and 0 μM L-glutamate (0%). The gist of the method:
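Cells induced 24 h with 7.5 μg mL^−1 doxycycline plus 500 μM (+)-ketamine, loaded 60 min at 37 °C with calcium dye in Mg-free HBSS (1.8 mM Ca, probenecid, 10 μM (+)-ketamine, pH 7.15). Peak RFU over 5 min after compound addition, scaled to 100 μM L-glutamate (100%) and 0 μM (0%); four-parameter Hill fit for EC50, max % if no plateau.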

T1 sequence (Q12879 23-1464, other chains not shown): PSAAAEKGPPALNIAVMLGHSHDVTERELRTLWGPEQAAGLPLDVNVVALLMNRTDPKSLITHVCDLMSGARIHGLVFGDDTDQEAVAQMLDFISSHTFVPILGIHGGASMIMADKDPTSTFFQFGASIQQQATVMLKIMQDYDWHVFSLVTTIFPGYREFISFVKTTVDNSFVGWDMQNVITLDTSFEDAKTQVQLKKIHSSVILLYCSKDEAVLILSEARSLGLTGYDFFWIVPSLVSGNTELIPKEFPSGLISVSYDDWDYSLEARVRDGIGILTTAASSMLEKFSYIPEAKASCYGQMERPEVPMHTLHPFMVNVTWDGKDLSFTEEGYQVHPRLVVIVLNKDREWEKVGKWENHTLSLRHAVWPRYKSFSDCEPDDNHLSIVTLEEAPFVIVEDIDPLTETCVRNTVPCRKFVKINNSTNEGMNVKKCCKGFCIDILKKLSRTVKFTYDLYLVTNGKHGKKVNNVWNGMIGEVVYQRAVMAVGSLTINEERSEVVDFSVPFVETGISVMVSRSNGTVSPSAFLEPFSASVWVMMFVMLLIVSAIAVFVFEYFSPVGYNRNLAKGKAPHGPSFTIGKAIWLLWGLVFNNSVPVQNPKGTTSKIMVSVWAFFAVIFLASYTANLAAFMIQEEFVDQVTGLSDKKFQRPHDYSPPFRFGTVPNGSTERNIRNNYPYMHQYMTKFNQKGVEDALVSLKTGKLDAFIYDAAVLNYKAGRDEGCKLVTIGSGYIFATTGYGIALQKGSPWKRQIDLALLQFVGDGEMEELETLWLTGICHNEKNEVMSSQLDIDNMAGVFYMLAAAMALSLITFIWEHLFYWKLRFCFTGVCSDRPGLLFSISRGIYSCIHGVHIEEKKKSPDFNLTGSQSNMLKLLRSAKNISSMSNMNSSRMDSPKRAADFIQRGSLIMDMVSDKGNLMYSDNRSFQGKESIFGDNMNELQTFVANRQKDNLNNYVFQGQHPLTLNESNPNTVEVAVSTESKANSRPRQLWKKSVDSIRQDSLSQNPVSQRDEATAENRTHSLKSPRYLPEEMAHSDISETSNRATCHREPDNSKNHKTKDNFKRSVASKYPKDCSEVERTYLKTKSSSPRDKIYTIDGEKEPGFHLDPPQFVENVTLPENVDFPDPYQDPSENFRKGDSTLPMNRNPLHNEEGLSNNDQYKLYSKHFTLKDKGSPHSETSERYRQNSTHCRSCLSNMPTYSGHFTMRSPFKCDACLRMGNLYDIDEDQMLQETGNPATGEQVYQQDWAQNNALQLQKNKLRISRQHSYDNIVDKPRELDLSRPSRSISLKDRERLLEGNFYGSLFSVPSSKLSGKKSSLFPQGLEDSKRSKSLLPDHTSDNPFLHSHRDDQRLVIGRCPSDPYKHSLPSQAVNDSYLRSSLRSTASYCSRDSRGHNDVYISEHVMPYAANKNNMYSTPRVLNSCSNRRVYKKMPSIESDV

`Cc1sc2nc(COc3ccc(F)cc3)cc(=O)n2c1C1CC1CO` (single isomer, unassigned) [Example 4.2, 7-(4-Fluorophenoxymethyl)-3-[trans-2-(hydroxymethyl)cyclopropyl]-2-methyl-5H-[1,3]thiazolo[3,2-a]pyrimidin-5-one]: where the note is “Table 2”, the concentration giving a half-maximal response (EC50) amounted to 1.3 µM and the Max % came out at 137%. Take `CCN(Cc1cc(=O)n2c(C(C)(C)C)c(C)sc2n1)c1ccc(F)cc1` [Example 10.2, 3-tert-butyl-7-[(N-ethyl-4-fluoro-anilino)methyl]-2-methyl-thiazolo[3,2-a]pyrimidin-5-one]: where the note is “Table 2”, the 50% effective concentration (EC50) came out at 5.3 µM and the Max % is recorded as 110%.

On to `CCN(Cc1cc(=O)n2c(C3CC3C#N)c(C)sc2n1)c1ccc(F)cn1` (stereo not drawn) [compound 195, 2-[7-[[ethyl-(5-fluoro-2-pyridyl)amino]methyl]-2-methyl-5-oxo-thiazolo[3,2-a]pyrimidin-3-yl]cyclopropanecarbonitrile], for which the EC50 (Table 3) is 0.0742 µM. On to `CNC(=O)c1c(C)sc2nc(COc3ccc(F)c(F)c3)cc(=O)n12` [Example 1.6, 7-(3,4-Difluorophenoxymethyl)-N,2-dimethyl-5-oxo-5H-[1,3]thiazolo[3,2-a] pyrimidine-3-carboxamide], for which, under “Table 2”, the concentration for a half-maximal effect (EC50) turned out to be 31.6 µM and the Max % is recorded as 64%. The like results for `CCN(Cc1cc(=O)n2c(N(C)C)c(C)sc2n1)c1ccc(F)cc1` [Example 6.2, 3-(dimethylamino)-7-((ethyl(4-fluorophenyl)amino)methyl)-2-methyl-5H-thiazolo[3,2-a]pyrimidin-5-one] were, in that order, 5 µM and 121%. For the compound `Cc1sc2nc(Cn3nc(C(F)(F)F)cc3Cl)cc(=O)n2c1C(C)C#N` (stereo not drawn) [Example 251A], for the setting “Table 3”, the concentration for a half-maximal effect (EC50) worked out at 2.62 µM.

`CCNC(=O)c1c(C)sc2nc(CN(CC)c3ccc(F)cn3)cc(=O)n12` [compound 147, N-ethyl-7-[[ethyl-(5-fluoro-2-pyridyl)amino]methyl]-2-methyl-5-oxo-thiazolo[3,2-a]pyrimidine-3-carboxamide]: under “Table 3”, the EC50 was determined as 1.98 µM. For `N#CC1CC1c1c(C(F)(F)F)sc2nc(Cn3nc(C(F)(F)F)cc3Cl)cc(=O)n12` (stereo not drawn) [compound 144, 2-[7-[[5-chloro-3-(trifluoromethyl)pyrazol-1-yl]methyl]-5-oxo-2-(trifluoromethyl)thiazolo[3,2-a]pyrimidin-3-yl]cyclopropanecarbonitrile], the EC50 (Table 3) was found to be 0.0411 µM. Same read-out and setting: under `CC[C@H](C)NC(=O)c1c(C)sc2nc(Cc3cccc(C(F)(F)F)c3F)cc(=O)n12` [compound 180, 7-[[2-fluoro-3-(trifluoromethyl)phenyl]methyl]-2-methyl-N-[(1S)-1-methylpropyl]-5-oxo-thiazolo[3,2-a]pyrimidine-3-carboxamide] stands 2.94 µM.

Take `CCN(Cc1cc(=O)n2c(CCC(=O)N(C)C)c(C)sc2n1)c1ccc(F)cc1` [Example 13.8, 3-[7-[(N-ethyl-4-fluoro-anilino)methyl]-2-methyl-5-oxo-thiazolo[3,2-a]pyrimidin-3-yl]-N,N-dimethyl-propanamide]: under “Table 2”, the Max % is on record as 61.2%.

As to `CCNC(=O)c1c(OC)sc2nc(Cn3nc(Cl)cc3C(F)(F)F)cc(=O)n12` [compound 127, 7-[[3-chloro-5-(trifluoromethyl)pyrazol-1-yl]methyl]-N-ethyl-2-methoxy-5-oxo-thiazolo[3,2-a]pyrimidine-3-carboxamide], the EC50 (Table 3) was found to be 4.87 µM. As to `CCN(Cc1cc(=O)n2c([C@@H]3C[C@H]3CO)csc2n1)c1ccc(F)cc1` (relative stereo) [Example 5.28, 7-[(N-ethyl-4-fluoro-anilino)methyl]-3-[trans-2-(hydroxymethyl)cyclopropyl)thiazolo[3,2-a]pyrimidin-5-one], where the note is “Table 2”, the EC50 worked out at 0.0952 µM and the Max % is 176%. As to `CCNC(=O)c1c(C(F)(F)F)sc2nc(Cc3cccc(Cl)c3F)cc(=O)n12` [compound 50, 7-[(3-chloro-2-fluoro-phenyl)methyl]-N-ethyl-5-oxo-2-(trifluoromethyl)thiazolo[3,2-a]pyrimidine-3-carboxamide], where the note is “Table 3”, the half-maximal effective concentration (EC50) is 6.4 µM.

For orientation: EC50 means the midpoint of the concentration-response curve.
